Measured values taken from PubChem BioAssay AID1259407 (Chemical Carcinogenesis Research Information System (CCRIS), 2018).
Activity calls are given as the source filed them. The rule behind the calls is not given here.

Test system: CCRIS mutagenicity, Ames/micronucleus/aberration tests
Assay: CCRIS mutagenicity studies
[1] = Test System: AMES SALMONELLA TYPHIMURIUM, Strain/Indicator: TA98, Metabolic Activation: NONE, Method: STANDARD PLATE
[2] = Test System: AMES SALMONELLA TYPHIMURIUM, Strain/Indicator: TA100, Metabolic Activation: NONE, Method: PREINCUBATION
[3] = Test System: AMES SALMONELLA TYPHIMURIUM, Strain/Indicator: TA100, Metabolic Activation: NONE, Method: STANDARD PLATE
[4] = Test System: AMES SALMONELLA TYPHIMURIUM, Strain/Indicator: TA1535, Metabolic Activation: NONE, Method: STANDARD PLATE
[5] = Test System: AMES SALMONELLA TYPHIMURIUM, Strain/Indicator: TA1538, Metabolic Activation: NONE, Method: STANDARD PLATE
[6] = Test System: AMES SALMONELLA TYPHIMURIUM, Strain/Indicator: TA98, Metabolic Activation: RAT, LIVER, S-9, AROCLOR 1254, Method: STANDARD PLATE

Measured: mutagenic call

O=S(=O)(c1ccc(O)cc1)c1ccc(O)cc1
inactive: Test System: AMES SALMONELLA TYPHIMURIUM, Strain/Indicator: TA98, Metabolic Activation: HAMSTER, LIVER, S-9, AROCLOR 1254 (10%), Method: STANDARD PLATE inactive; negative | Test System: AMES SALMONELLA TYPHIMURIUM, Strain/Indicator: TA98, Metabolic Activation: NONE, Method: PREINCUBATION inactive; negative | [1] inactive; negative | Test System: AMES SALMONELLA TYPHIMURIUM, Strain/Indicator: TA98, Metabolic Activation: RAT LIVER S-9, PHENOBARBITAL AND BETA-NAPHTHOFLAVONE, Method: PREINCUBATION inactive; negative | Test System: AMES SALMONELLA TYPHIMURIUM, Strain/Indicator: TA98, Metabolic Activation: RAT, LIVER, S-9, AROCLOR 1254 (10%), Method: STANDARD PLATE inactive; negative | Test System: AMES SALMONELLA TYPHIMURIUM, Strain/Indicator: TA100, Metabolic Activation: HAMSTER, LIVER, S-9, AROCLOR 1254 (10%), Method: STANDARD PLATE inactive; negative | [2] inactive; negative | [3] inactive; negative | Test System: AMES SALMONELLA TYPHIMURIUM, Strain/Indicator: TA100, Metabolic Activation: RAT LIVER S-9, PHENOBARBITAL AND BETA-NAPHTHOFLAVONE, Method: PREINCUBATION inactive; negative | Test System: AMES SALMONELLA TYPHIMURIUM, Strain/Indicator: TA100, Metabolic Activation: RAT, LIVER, S-9, AROCLOR 1254 (10%), Method: STANDARD PLATE inactive; negative | Test System: AMES SALMONELLA TYPHIMURIUM, Strain/Indicator: TA1535, Metabolic Activation: HAMSTER, LIVER, S-9, AROCLOR 1254 (10%), Method: STANDARD PLATE inactive; negative | Test System: AMES SALMONELLA TYPHIMURIUM, Strain/Indicator: TA1535, Metabolic Activation: NONE, Method: PREINCUBATION inactive; negative | [4] inactive; negative | Test System: AMES SALMONELLA TYPHIMURIUM, Strain/Indicator: TA1535, Metabolic Activation: RAT LIVER S-9, PHENOBARBITAL AND BETA-NAPHTHOFLAVONE, Method: PREINCUBATION inactive; negative | Test System: AMES SALMONELLA TYPHIMURIUM, Strain/Indicator: TA1535, Metabolic Activation: RAT, LIVER, S-9, AROCLOR 1254 (10%), Method: STANDARD PLATE inactive; negative | Test System: AMES SALMONELLA TYPHIMURIUM, Strain/Indicator: TA1537, Metabolic Activation: HAMSTER, LIVER, S-9, AROCLOR 1254 (10%), Method: STANDARD PLATE inactive; negative | Test System: AMES SALMONELLA TYPHIMURIUM, Strain/Indicator: TA1537, Metabolic Activation: NONE, Method: PREINCUBATION inactive; negative | Test System: AMES SALMONELLA TYPHIMURIUM, Strain/Indicator: TA1537, Metabolic Activation: NONE, Method: STANDARD PLATE inactive; negative | Test System: AMES SALMONELLA TYPHIMURIUM, Strain/Indicator: TA1537, Metabolic Activation: RAT LIVER S-9, PHENOBARBITAL AND BETA-NAPHTHOFLAVONE, Method: PREINCUBATION inactive; negative | Test System: AMES SALMONELLA TYPHIMURIUM, Strain/Indicator: TA1537, Metabolic Activation: RAT, LIVER, S-9, AROCLOR 1254 (10%), Method: STANDARD PLATE inactive; negative | Test System: AMES SALMONELLA TYPHIMURIUM, Strain/Indicator: TA1538, Metabolic Activation: HAMSTER, LIVER, S-9, AROCLOR 1254 (10%), Method: STANDARD PLATE inactive; negative | [5] inactive; negative | Test System: AMES SALMONELLA TYPHIMURIUM, Strain/Indicator: TA1538, Metabolic Activation: RAT, LIVER, S-9, AROCLOR 1254 (10%), Method: STANDARD PLATE inactive; negative | Test System: E. COLI, Strain/Indicator: WP2UVRA, Metabolic Activation: NONE, Method: PREINCUBATION inactive; negative | Test System: E. COLI, Strain/Indicator: WP2UVRA, Metabolic Activation: RAT LIVER S-9, PHENOBARBITAL AND BETA-NAPHTHOFLAVONE, Method: PREINCUBATION inactive; negative | Test System: MOUSE LYMPHOMA, Strain/Indicator: L5178Y (TK+/TK-), Metabolic Activation: NONE, Method: SUSPENSION/PLATE inactive; positive. reevaluation of results: negative | Test System: MOUSE LYMPHOMA, Strain/Indicator: L5178Y (TK+/TK-), Metabolic Activation: RAT, LIVER, S-9, AROCLOR 1254, Method: SUSPENSION/PLATE inactive; negative

Cc1cc2c3c(ccc2c2ccccc12)C(O)C(O)[C@@H]1O[C@@H]31 (stereo partly specified)
inactive: [2] inactive; negative

CC(C)COC(=O)NO
active: Test System: E. COLI, Strain/Indicator: WP2 UVRA, Metabolic Activation: NONE, Method: FLUCTUATION TEST active; positive

O[C@@H]1C=Cc2c(cc3ccc4cccc5ccc2c3c45)[C@@H]1O
active: [6] active; positive

[CH3][Sn]([CH3])([CH3])[Cl]
inactive: Test System: AMES SALMONELLA TYPHIMURIUM, Strain/Indicator: TA98, Metabolic Activation: NONE, Method: SUSPENSION/PLATE inactive; negative | Test System: AMES SALMONELLA TYPHIMURIUM, Strain/Indicator: TA100, Metabolic Activation: NONE, Method: SUSPENSION/PLATE inactive; negative

Cc1cccc(N=Nc2c(O)ccc3ccccc23)c1C
inactive: [1] inactive; negative | Test System: AMES SALMONELLA TYPHIMURIUM, Strain/Indicator: TA98, Metabolic Activation: RAT, LIVER, S-9, Method: STANDARD PLATE inactive; negative | [3] inactive; negative | Test System: AMES SALMONELLA TYPHIMURIUM, Strain/Indicator: TA100, Metabolic Activation: RAT, LIVER, S-9, Method: STANDARD PLATE inactive; negative

O=C(NC(=S)NNC(=O)c1cc(O)ccc1O)c1ccccc1
active: Test System: AMES SALMONELLA TYPHIMURIUM, Strain/Indicator: TA1530, Metabolic Activation: NONE, Method: STANDARD PLATE active; positive

CCN(CC)c1ccc(-c2ccccc2)c(-c2ccccc2)c1N(CC)CC
active: [5] active; positive | Test System: AMES SALMONELLA TYPHIMURIUM, Strain/Indicator: TA1538, Metabolic Activation: RAT, LIVER, S-9, AROCLOR 1254, Method: STANDARD PLATE active; positive

C=C1C[C@@]23CCC4[C@](C)(C(=O)O)CCC[C@@]4(C)[C@@H]2CC[C@]1(OC(C)=O)C3 (stereo partly specified)
inactive: Test System: AMES SALMONELLA TYPHIMURIUM, Strain/Indicator: TM677, Metabolic Activation: RAT, LIVER, S-9, AROCLOR 1254, Method: PREINCUBATION inactive; negative

O=C(O)c1cc(=O)c2cccc(O)c2[nH]1
inactive: [2] inactive; negative

COC1=CC(=O)c2nc(C)c3c([nH]c4ccccc43)c2C1=O
inactive: [1] inactive; negative | Test System: AMES SALMONELLA TYPHIMURIUM, Strain/Indicator: TA100, Metabolic Activation: RAT, LIVER, S-9, AROCLOR 1254, Method: STANDARD PLATE inactive; negative | Test System: AMES SALMONELLA TYPHIMURIUM, Strain/Indicator: TA102, Metabolic Activation: NONE, Method: STANDARD PLATE inactive; negative | Test System: AMES SALMONELLA TYPHIMURIUM, Strain/Indicator: TA102, Metabolic Activation: RAT, LIVER, S-9, AROCLOR 1254, Method: STANDARD PLATE inactive; negative
active: Test System: AMES SALMONELLA TYPHIMURIUM, Strain/Indicator: TA97, Metabolic Activation: NONE, Method: STANDARD PLATE active; positive | Test System: AMES SALMONELLA TYPHIMURIUM, Strain/Indicator: TA97, Metabolic Activation: RAT, LIVER, S-9, AROCLOR 1254, Method: STANDARD PLATE active; positive | [6] active; positive | [3] active; positive

CC(Br)C(=O)NC(C)(C)C (stereo unspecified)
inactive: [3] inactive; negative

CCOP(=S)(OCC)SCCSCC
inactive: Test System: E. coli polA test, Strain/Indicator: (K12)p3478/W3110, Metabolic Activation: None, Method: Plate test with 24 hr exposure inactive; negative | Test System: E. coli polA test, Strain/Indicator: (K12)p3478/W3110, Metabolic Activation: S-9, Method: Plate test with 24 hr exposure inactive; negative
active: End Point: In vivo micronucleus, Test System: Micronucleated polychromatic erythrocytes, Species: Mouse, Strain/Sex: Hsd/Win: NMRI/Male and female, Route: Intraperitoneal active; positive at 24 and 48 hr compared with the concurrent control, but equivocal com | [4] active; positive | Test System: AMES SALMONELLA TYPHIMURIUM, Strain/Indicator: TA1535, Metabolic Activation: S-9 MIX, Method: STANDARD PLATE active; positive | Test System: UDS HUMAN FIBROBLASTS, Strain/Indicator: THY INCORP (NON-S-PHASE), Metabolic Activation: NONE, Method: LIQUID SCINTILLATION COUNTING active; positive
